Assay results as given in US4216314A, “N-Aryloxypropyl-N'-dioxopyrimidyl-α,ω-alkylenediamines” (Cassella Farbwerke Mainkur Aktiengesellschaft, priority 1977, dated 1980).

Tests used:
[1] = target: T1, β1 -receptors of the heart (Canis lupus familiaris, UniProt P79148); experiment: inhibition of isoproterenol effect on dp/dtmax of left ventricle (β1-receptors of the heart) in anaesthetised dogs; assay type: in vivo, mongrel dogs; conditions: for ED50: dog, cumulative intravenous dose for 50% inhibition of effect of isoproterenol (0.5 gamma/kg i.v.) on dp/dtmax, chloralose/urethane/morphine anaesthesia, read-out: ED50 β1 mg/kg intravenously; for ratio of the doses, ED50 β2 / ED50 β1 (head is drawing 43): number significantly >1 indicates cardioselective action
T1 construct: from tissue; host or cells: heart (left ventricle) of anaesthetised mongrel dogs, in vivo
T1 sequence (P79148 whole entry): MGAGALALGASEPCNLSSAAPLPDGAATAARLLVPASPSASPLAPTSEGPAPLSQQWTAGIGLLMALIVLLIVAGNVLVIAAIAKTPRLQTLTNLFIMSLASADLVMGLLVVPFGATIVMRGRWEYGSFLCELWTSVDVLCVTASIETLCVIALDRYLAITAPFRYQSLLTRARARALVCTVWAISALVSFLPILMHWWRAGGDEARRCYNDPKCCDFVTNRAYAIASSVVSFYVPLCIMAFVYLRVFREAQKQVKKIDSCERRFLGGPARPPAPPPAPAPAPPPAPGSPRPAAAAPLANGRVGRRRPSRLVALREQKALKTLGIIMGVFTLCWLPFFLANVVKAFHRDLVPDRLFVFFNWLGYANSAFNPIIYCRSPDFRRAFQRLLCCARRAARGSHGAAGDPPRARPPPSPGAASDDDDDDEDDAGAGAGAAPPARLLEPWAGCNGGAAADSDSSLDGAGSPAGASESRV
Protocol: (§1) Pharmacological tests for activity towards β1 -receptors and β2 -receptors were carried out on mongrel dogs of both sexes under chloralose/urethane/morphine anaesthesia. The pressure in the left ventricle was recorded by means of a catheter tip manometer (micro-tip pressure transducer, MILLAR Instruments, Houston, Texas). The pressure signal was continuously differentiated by means of an analog computer and recorded (BRUSH Instruments, Cleveland, Ohio). The flow of blood through an arteria femoralis was measured and recorded by means of an electromagnetic flow meter (Messrs. STATHAM, Model M4000). Injection catheters were fastened to a peripheral vein and into a branch of the a. femoralis.
(§2) Isoproterenol was injected intravenously (0.5 gamma/kg) and intraarterially (0.05 gamma/kg). The effect of the isoproterenol on the dp/dtmax in the case of intravenous administration was considered to be an expression of the stimulation of the β1 -receptors of the heart. The change in the flow of blood through the arteria femoralis in the case of intraarterial injection of isoproterenol was considered to be an expression of the stimulation of the peripheral β2 -receptors (D-DUNLOP and R. G. SHANKS, "Selective Blockade of Adrenoceptive beta-Receptors in the Heart", Br. J. Pharmac. Chemother., 32, 201 to 218, 1968). The percentage inhibition of the effects of isoproterenol with respect to the cumulative doses of the test substance was determined. The cumulative doses of the test substance which leads to 50% inhibition of the isoproterenol effects (=ED50) was determined by means of a modified probit analysis. Substances which inhibit the isoproterenol effects on the dp/dtmax (β1) at a low dose and only decrease the change in the flow of blood through the a. femoralis at higher doses (β2) preferentially act on the β1 -receptors of the heart. The ratio of the doses. [formula] should be as high as possible.

peripheral β2 -receptors = target: T2, peripheral β2 -receptors (Canis lupus familiaris, UniProt P54833); experiment: inhibition of isoproterenol effect on blood flow through arteria femoralis (peripheral β2-receptors) in anaesthetised dogs; assay type: in vivo, mongrel dogs; conditions: dog; cumulative intravenous dose for 50% inhibition of effect of isoproterenol (0.05 gamma/kg intraarterially) on blood flow through a. femoralis; chloralose/urethane/morphine anaesthesia; read-out: ED50 β2 mg/kg intraveneously
T2 construct: from tissue; host or cells: femoral arterial bed of anaesthetised mongrel dogs, in vivo
T2 sequence (P54833 whole entry): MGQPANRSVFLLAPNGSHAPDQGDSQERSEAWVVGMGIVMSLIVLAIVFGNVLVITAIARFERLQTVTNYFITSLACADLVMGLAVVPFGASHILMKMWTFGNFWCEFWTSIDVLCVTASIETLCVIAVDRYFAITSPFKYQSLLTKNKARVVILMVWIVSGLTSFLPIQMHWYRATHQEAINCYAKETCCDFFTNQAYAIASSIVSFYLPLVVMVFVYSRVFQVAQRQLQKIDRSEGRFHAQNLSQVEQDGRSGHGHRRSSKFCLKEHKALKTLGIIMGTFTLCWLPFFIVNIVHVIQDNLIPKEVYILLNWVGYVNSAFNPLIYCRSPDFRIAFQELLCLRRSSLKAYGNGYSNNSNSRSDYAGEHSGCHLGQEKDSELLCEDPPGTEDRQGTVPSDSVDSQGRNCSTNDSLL
Protocol: as §1, §2

ED50 [1] [mg/kg] | ratio of the doses, ED50 β2 / ED50 β1 (head is drawing 43) [1] | ED50 (peripheral β2 -receptors) [mg/kg] | Compound
0.0157 | 341 | 5.36 | COc1ccc(OCC(O)CNCCNc2cc(=O)n(C)c(=O)n2C)cc1 (stereo not drawn) [Example 11]
0.0291 | 303 | 8.83 | Cn1c(NCCNCC(O)COc2ccc(OCCO)cc2)cc(=O)n(C)c1=O (stereo not drawn) [Example 14]
0.0061 | > 1,000 | > 7.3 | CCCOc1ccc(OCC(O)CNCCNc2cc(=O)n(C)c(=O)n2C)cc1 (stereo not drawn) [Example 12]
0.0139 | 322 | 4.48 | Cn1c(NCCNCC(O)COc2ccc(OCc3ccccc3)cc2)cc(=O)n(C)c1=O (stereo not drawn) [Example 19]
0.0096 | > 1,000 | > 9.6 | CCCCOc1ccc(OCC(O)CNCCNc2cc(=O)n(C)c(=O)n2C)cc1 (stereo not drawn) [Example 13]
